In a melting point compilation (Tetko et al.; mined from patent text by program, amines drawn as free bases though some values may be those of a salt):

SMILES	melting point [°C]
COCCON1C(=O)C(c2c(C)cc(C)cc2C)C(=O)C12CCN(N(C)C)CC2 (centres undefined)	108
COc1ccc(C2=NN(c3ccc(C4=NNC(=O)CC4C)cc3)C(=O)C3CC=CCC23)cc1Cl (centres undefined)	198 to 201
Cc1ccc(N(C)S(=O)(=O)c2cccs2)c2[nH]c(-c3ncc(CN4CCC(O)C4)s3)cc12 (centres undefined)	190 to 191
CNc1ncc(S(=O)(=O)NC(=O)NC(C)C)c(Nc2cccc(C)c2)n1	206 to 207
C[C@@H](c1nc(-c2ccc(C#N)cc2)cs1)[C@](O)(Cn1cncn1)c1ccc(F)cc1F	164 to 166
CCCc1cccnc1N	25 to 27
Cc1cc(C(=O)O)cc2c1[nH]c1ccccc12	> 240
CCCC(Cl)(Cl)C(NC(=O)c1ccc(Cl)cc1)NC(=NC#N)Nc1cccnc1 (centres undefined)	192 to 193
C/C(=C\c1ccc(OCCN(C)C)cc1)c1ccc2c(c1)C(C)(C)CCS2	81 to 82
COc1cccc(-c2cccc3nc(Nc4cc(OC)c(OC)c(OC)c4)oc23)c1	167 to 170
O=c1oc(-c2ccccc2)cc(O)c1Sc1cccc(C(F)(F)F)c1	228 to 229
CN(C)CCOc1ccc(-c2cccc(N)n2)c2ccccc12	98 to 106
O=C1OCc2ccccc2C1=NO	181 to 185
CCOC(=O)N1CCN(CCNc2ncnc3c2sc2nc(-c4ccoc4)c4c(c23)CC(C)(C)CC4)CC1	85.1 to 86.4
C=CCC1CC(=O)N1C(C(=O)OCOC(=O)C(C)(C)C)=P(c1ccccc1)(c1ccccc1)c1ccccc1 (centres undefined)	140 to 142
OCC1(Nc2nc(-c3ccc(Br)cc3)cs2)CC1	129 to 131
COc1ccc(-c2c3c(cc4ccc5c(c24)OCO5)C(=O)OC3)cc1OC	221 to 223
Cc1nc2cccc(C3CC3CN3C(=O)c4ccccc4C3=O)c2s1 (centres undefined)	151 to 153
N#CCC1(O)CCc2ccccc2C12CCCC2 (centres undefined)	165 to 166
O=C(O)c1cn(-c2cccc(F)c2)c2c(F)c(F)c(F)cc2c1=O	89 to 91
COCC(=O)N1c2ccc(N3C[C@H](CNC(C)=O)OC3=O)cc2C[C@H]1C	174 to 175

SMILES	melting point [°C]
Cn1cc(C2=C(c3cn(C(=O)C(C)(C)C)c4cc([N+](=O)[O-])ccc34)C(=O)NC2=O)c2ccccc21	> 245
Sc1nsnc1C12CN3CC1C2C3	205 to 207
CCCOc1ccnc(CS(=O)c2nc3ccccc3[nH]2)c1C (centres undefined)	81 to 83
Clc1ccc2c(c1)C(NC1=NCCS1)CCC2 (centres undefined)	164 to 166
CON1C(=O)CC2(CCN(CCNC(=O)c3cccnc3)CC2)C1=O	112 to 119
COC(=O)C1(C(=O)Nc2ccc(Br)cc2C)CC1	106 to 108
N#Cc1ccc2c(c1)OCC21C(=O)N(Cc2ccccn2)c2ccccc21 (centres undefined)	151 to 153
Nc1c(-c2ccc(-c3ccccc3)cc2)nc2c(Cl)cc(Cl)cc2c1C(=O)O	244 to 245
CN1CCN2c3ncc(Br)cc3Cc3ccccc3C2C1 (centres undefined)	126 to 128
CNc1cc(OCC2CO2)ccc1[N+](=O)[O-] (centres undefined)	113
CN1Cc2nnnn2-c2ccccc21	107 to 110
O=C1CCCNc2ccc(Cl)cc21	103 to 104
CCCCC(=O)N(CCOC)Cc1ccc(-c2ccccc2-c2nnn[nH]2)cc1	120 to 122
COC(=O)COC(=O)C(Cc1cc(=O)[nH]c2ccccc12)NC(=O)c1ccc(Cl)cc1 (centres undefined)	202 to 204
Cc1ccc(S(=O)(=O)NN=C2C(=O)Nc3cccc(Cl)c32)cc1	195 to 196
COc1ccc2c(c1)CNc1cc(Cl)ccc1O2	111 to 113
CCOC(=O)NCc1cc(-c2ccc(Cl)cc2)no1	137
COc1ccc(C(=O)Nc2ccc3ccc(C=CN(C)C)nc3n2)cc1	240
CSc1cccc(NC(C)=N)c1	134 to 135
COC(=O)CCc1oc(-n2cnc3ccccc32)nc1-c1ccc(C(F)(F)F)cc1	129 to 130

Further lines, results first:

melting point [°C]	SMILES
210 to 215	CC(=O)NCc1cn(-c2ccc(-n3cccc3)c(F)c2)nn1
181 to 183	COc1cc(C)cc(NC(=O)c2nnnn2Cc2ccccc2)c1OCc1ccccc1
204 to 206	CSC(=S)N/N=C/c1ccc(-c2ncn(-c3ccc(OC(F)(F)F)cc3)n2)cc1
80.5 to 83.5	C=C=COc1ccc2ccc(OC=C=C)cc2c1
200 to 203	CC1NC(=O)NN=C1c1ccccc1OCc1ccccc1 (centres undefined)
62 to 63	Cc1ccc(N2CSC(=NCC(F)(F)F)N(Cc3ccc(C(F)(F)F)cc3)C2=O)cc1
142 to 143	CSc1nsc(NC(=O)C(C)(C)C)c1C(N)=O
224 to 228	COc1ccc(C(=O)Nc2cccnc2)c2c3cc(Cl)ccc3n(Cc3ccc(F)cc3)c12
210 to 211	O=C(O)Cc1cc2c(c(C(=O)O)c1)NCCC2
156 to 158	C1=C(c2cccs2)CCC(N2CCN(c3ccccn3)CC2)C1 (centres undefined)
92 to 94	CC(Oc1cccc2ccoc12)C(N)=NO (centres undefined)
222 to 223	COc1ccc(C(=O)Nc2cc(-c3c(-c4ccc(F)c(C)c4)nc4cccnn34)ccn2)cc1
176	CCCCCCCC(=O)NCc1cccc(-c2ccc(C=CC(=O)O)cc2)c1
150 to 151	O=C(NCCCCCCCNC(=O)c1ccc(OC(F)(F)F)cc1)c1ccc(OC(F)(F)F)cc1
141 to 143	CCCCCCCSc1nn2c(=O)c(C)c(O)nc2s1
54 to 56	ClCCOc1ccc(Br)cc1
203 to 206	CC12C=CC(=O)C=C1CCC1C2C(=O)CC2(C)C(C(=O)CO)CCC12 (centres undefined)

melting point [°C]	SMILES
160	COc1ccc(C(=O)Nc2ccc3ccc(Oc4cccc(C)c4)nc3n2)cc1
198 to 200	O=C1N(N2CCOCC2)c2ccccc2C1(O)Cc1ccncc1 (centres undefined)
90	Cc1c(C)c(C=O)c2c(c1C)CCO2
193 to 195	Cc1c(O[Si](C(C)C)(C(C)C)C(C)C)cc2occ(N3CCC(O)(c4ccc(F)cc4)CC3)c(=O)c2c1Br
90 to 92	CCOC(=O)CSC(C)=NO
188 to 191	N#CSc1ccc(NC(=O)OCc2cccnc2)cc1
143 to 145	N#CC(C(=O)OC1CCCCC1)=C1Nc2ccccc2O1
211	CN(C)c1ccc2nc(N)c(C#N)c(NCc3cccs3)c2c1
158	CCn1cnc2c(Nc3ccccc3)nc(Cl)nc21
123 to 124	O=P(O)(O)CCCCC(F)(F)C(F)(F)C(F)(F)C(F)(F)F
216 to 219	Cc1c(/C=C/C(=O)c2cn(C)c3ccccc23)ncn1C(c1ccccc1)(c1ccccc1)c1ccccc1
193 to 196	CSc1cnc(NC(=O)c2ccc(OC(C)=O)cc2)s1
115 to 118	Fc1ccc(C(=C(c2ccccc2)c2ccc(OCCBr)cc2)C(F)(F)F)cc1
107 to 109	O=[N+]([O-])c1c(F)c(F)c(O)c(Cl)c1F
182 to 185	Cc1ccc(N2N=C(C(N)=O)NC2c2c(F)cccc2F)cc1COCC(F)(F)C(F)(F)F (centres undefined)
234 to 239	COc1ccc(C=C2SC(=S)N(CC(=O)O)C2=O)cc1OCc1ccccc1
